Experimental findings from ChEMBL document CHEMBL1133171, “Selective plasma hydrolysis of glucocorticoid gamma-lactones and cyclic carbonates by the enzyme paraoxonase: an ideal plasma inactivation mechanism” (J Med Chem, 2000) are described below.

Test [1] addresses T1, Glucocorticoid receptor (Homo sapiens, UniProt P04150).
T1 sequence (P04150 whole entry): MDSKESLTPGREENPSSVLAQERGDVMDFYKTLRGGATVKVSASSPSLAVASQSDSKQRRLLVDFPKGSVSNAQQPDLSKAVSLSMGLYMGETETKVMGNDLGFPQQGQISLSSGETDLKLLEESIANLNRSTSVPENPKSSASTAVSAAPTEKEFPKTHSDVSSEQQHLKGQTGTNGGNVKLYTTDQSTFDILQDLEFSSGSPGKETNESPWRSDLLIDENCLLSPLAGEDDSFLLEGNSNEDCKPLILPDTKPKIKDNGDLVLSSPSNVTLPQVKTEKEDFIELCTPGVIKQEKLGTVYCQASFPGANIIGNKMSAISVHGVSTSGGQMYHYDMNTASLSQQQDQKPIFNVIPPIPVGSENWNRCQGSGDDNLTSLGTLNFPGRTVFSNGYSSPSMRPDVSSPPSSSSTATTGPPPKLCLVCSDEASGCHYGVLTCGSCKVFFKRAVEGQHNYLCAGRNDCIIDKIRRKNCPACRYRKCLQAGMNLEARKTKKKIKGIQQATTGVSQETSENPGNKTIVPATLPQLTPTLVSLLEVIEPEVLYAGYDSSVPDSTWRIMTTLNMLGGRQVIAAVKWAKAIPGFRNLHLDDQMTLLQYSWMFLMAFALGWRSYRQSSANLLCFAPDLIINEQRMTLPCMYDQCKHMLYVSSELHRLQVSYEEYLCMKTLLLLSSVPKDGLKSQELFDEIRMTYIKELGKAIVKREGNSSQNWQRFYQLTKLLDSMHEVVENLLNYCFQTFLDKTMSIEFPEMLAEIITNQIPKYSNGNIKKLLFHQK
Briefly: (§1) Inhibition of [3H]dexamethasone binding to human Glucocorticoid Receptor.

Test [2] deals with T1, Glucocorticoid receptor. Described as §1. This is another data set of the same source.

The structures appear in SMILES notation.

For `CC1(C)O[C@@H]2CC3C4C[C@H](F)C5=CC(=O)C=C[C@]5(C)[C@@]4(F)[C@@H](O)C[C@]3(C)[C@]2(C(=O)CSC(CCO)C(=O)O)O1` (some centres not stated), the half-inhibitory concentration (IC50) on Glucocorticoid receptor [1] came to 194 nM; on Glucocorticoid receptor [2], 827 nM.

One may read the IC50 as the concentration at which inhibition is half-maximal.
